# Assay results reported in patent publication US20140256663A1, “Amphotericin Analogous Compounds and Pharmaceutical Compositions Containing Them” (CENTRO DE INVESTIGACION Y DE ESTUDIOS AVANZADOS DEL …, priority 2010, published 2014).
# “Also recorded” adds a separate entry of the source.
# Assays:
# [1] = tested on: human renal cells 293Q (ATCC CLR-1573); assay: MTT cytotoxicity on human renal cells 293Q
# Description: For cytotoxicity studies human kidney cells (ATCC No. CRL-1573) were used. The cells were cultured with Minimum Essential Medium (MEM) (GIBCO BRL), supplemented with 10% fetal bovine serum (FBS) (GIBCO BRL), 2 mM 1-glutamine (GIBCO BRL), 1.5 gL Na2HCO3 (Sigma Chemical Co), 0.1 mM nonessential amino acids (Sigma Chemical Co), and 1 mM sodium pyruvate (In vitro, S.A.). The technique of bromide of 3(4,5-dimethylthiazol-2-yl)-2,5-diphenyl tetrazolium (MTT) (Sigma Chemical Co) was applied; a technique which is based on the conversion of dye to an insoluble precipitate called formazan. This test is used as an indicator of mitochondrial function in living cells that measures the metabolic capacity in cells and serves as an indicator of cytotoxicity. […] (Mosman […], Immunol Methods, 65: 55-63). The cytoxicity test consisted of planting 10,000 cells per well in 96-well plates (Corning Incorporated Costar) in MEM and incubate them (Nuaire us autoflow CO2 water-jacketed incubator) during 24 h at 37° C. and 5% CO2. […] After incubation, cells were treated and incubated anew for 24 h. After this time the medium was aspirated carefully and replaced with 200 μL of fresh medium, and 50 μL of MTT was added for a total volume of 250 μl. They were then incubated for 4 hours in the above conditions. After that time the medium with MTT was carefully removed and 200 μL of DMSO and 25 μL of Sorensen buffer (0.1 M glycine+0.1 M NaCl at pH 10.5) were added to each well. The plate was then mixed until the formazan crystals dissolved, and it was finally read in a plate reader (Microplate Limaning System Ultramark, Biorad) at a wavelength of 550 nm.
# For the tests, we used human renal ephythelial cells (293Q) (ATCC Catalog No. CRL-1573). The cells were cultured with Minimum Essential Medium (MEM) (GIBCO BRL) supplemented with 10% fetal bovine serum (FBS) (GIBCO BRL), 2 mM L-glutamine (GIBCO BRL), 1.5 g/L Na2HCO3 (Sigma Chemical Co), 0.1 mM nonessential amino acids (Sigma Chemical Co), and 1 mM sodium pyruvate (In vitro, S.A.). For cytoxicity tests, we applied the technique of bromide 3(4,5-dimethylthiazol-2-yl)-2,5-diphenyl tetrazolium (MTT) (Sigma Chemical Co), which is based on the conversion of the dye to an insoluble precipitate called formazan. This test is used as an indicator of mitochondrial function in living cells which measures the metabolic capacity in cells and serves as an indicator of cytotoxicity. (Wang, H. Z., Chang, C. H., Lin, C. P., Tsai, M. C). Using MTT viability assay to test the cytotoxicity of antibiotics and steroid to cultured porcine corneal endothelial cells. J. Ocul. Pharmacol. Ther. 1996; 12: 35-43). For the essay 10,000 cells were seeded per well in 96-well plates (Corning Incorporated Costar) in the medium already indicated and incubated for 24 h at 37° C. and 5% CO2. […] After incubation, cells were treated and incubated again for 24 h. The medium was carefully aspirated and replaced with 200 μl fresh medium, adding 50 μl MTT solution for a total volume of 250 μl. They were then incubated for 4 hours in the above conditions. The medium was carefully removed with MTT and 200 μl DMSO and 25 μl Sorense buffer (0.1 M glycine+0.1 M NaCl at pH 10.5) was added to each well. Then the plate was mixed until the formazan crystals dissolved; it was finally read in a reader plate (Microplate Limaning System Ultramark, Biorad) at a wavelength of 550 nm.
# [2] = Unit channel studies in chicken egg lecithin bilayers with ergosterol; settings: AmB 2 μM; 30° C.
# Description: Unit channel studies were performed according to procedures described earlier (Cotero, et al., supra, Venegas, et al., supra). Required liposomal suspensions were prepared using lecithin with cholesterol or ergosterol. These suspensions were placed in an ultrasonic bath for 15 minutes to produce unilamellar vesicles. Subsequently, the suspension was placed in a 100 μl eppendorf and a lipid bilayer was formed on the tip of a micro-electrode. The unit channels of amphotericin and of the invented compounds were incorporated to this bilayer. The unit channel current of the various compounds was recorded with an electrometer, and then these records were analyzed by determining the activity of the compounds and the characteristics of the channels formed.
# The activity is determined by the presence of the various channels formed by polyenes in the lipid bilayer (Cotero, et al., supra, Venegas, et al., supra). […] This conductance is the effect of all the channels present and was determined by the unit channel technique earlier described.
# [3] = tested on: Candida albicans ATCC 10231; assay: Antifungal activity in vitro by flow cytometry, Candida albicans ATCC 10231; type: cell-based; settings: ATCC10231, 24 h at 37° C., read-out: CF50 Candida albicans ATCC 10231
# Description: The antifungal activity of the polyene macrolide derivate of the present invention was determined by flow cytometry method earlier described (Pinto et al., J. Medical Microbiology, 2009; 58, 1454-1462; Pina-Vaz and Rodriguez, Methods Mol. Biol. 2010; 638:281-289). For the test two strains of Candida albicans (ATCC 10231 and 752) and Candida kruzei were used. A cellular suspension of 1×10^6 UFC/mL was used, which has sown in 96-well plates. […] As controls were used: untreated yeasts (control of living cells), yeasts exposed to UV radiation (arrest, inhibition of proliferation), and yeasts exposed at temperature of 100° C. (dead yeasts). Cells were collected by centrifugation at 10,000×g for 10 min, they were washed once in phosphate buffer. […] of propidium iodide 0.1 mg/mL were added to the cell suspension. It was incubated during 30 minutes at room temperature and protected from light. Finally, the samples were analyzed by flow cytometry (Becton-Dickinson Facsc Calibur, laser argon 480 nm). The intrinsic parameters and fluorescence in the FL2 channel (yellow/orange fluorescence) for FUN and channel FL3 (red fluorescence, filter 630 nm) for propidium iodide were acquired and registered on a logarithmic scale for a minimum of 7500 events per sample. For data analysis, the quadrants were adjusted in a plot of data lines of fluorescence intensity of samples. […] These quadrants were used to quantify the percentile of cells showing altered fluorescence compared to drug-free controls.
# [4] = comparison value, source not given; cited from earlier work
# [5] = tested on: Saccharomyces cerevisae FY833(SC) cells; assay: Viability of Saccharomyces cerevisae FY833 (SC) cells at various concentrations; type: cell-based; settings: FIG. 1, various concentrations; listed as amide 7
# Description: All derivatives were tested for antibiotic activity in yeast cultures of S. cerevisiae.
# [6] = tested on: Saccharomyces cerevisae FY833(SC) cells compared with human renal cells 293Q; settings: FIG. 3
Compound,"DT50 CitE50 ([1]; human, 24 h) [µM]","MIC50 Kidney cells (293Q) ([1]; human, 24 h) [µM]",Average conductance ergosterol [2] [fS],IC50 [3] [nM],solubility of AmB [4] [µg/mL],inhibitory capacity / potency on SC cells compared to AmB [5],"collateral cytotoxicity on human renal cells 293Q compared to AmB ([1]; FIG. 2, FIG. 8, listed as amide 7)","DT50 CitE50 ([1]; human renal cells 293Q, 24 h) [µM]",advantage of selectivity over AmB (factor) [6]
"C[C@@H]1[C@H](O)[C@@H](C)/C=C/C=C/C=C/C=C/C=C/C=C/C=C/[C@H](O[C@@H]2O[C@H](C)[C@@H](O)[C@H](N)[C@@H]2O)C[C@@H]2O[C@](O)(C[C@@H](O)C[C@@H](O)[C@H](O)CC[C@@H](O)C[C@@H](O)CC(=O)O[C@H]1C)C[C@H](O)[C@H]2C(=O)O [AmB, Amphotericin B]",9.7,9.7,600 ± 210,200,10,,,,
"COC(=O)[C@@H](Cc1c[nH]c2ccccc12)NC(=O)[C@@H]1C(O)C[C@@]2(O)C[C@@H](O)C[C@@H](O)[C@H](O)CC[C@@H](O)C[C@@H](O)CC(=O)OC(C)C(C)[C@H](O)C(C)/C=C/C=C/C=C/C=C/C=C/C=C/C=C/[C@H](OC3OC(C)C(O)C(N)C3O)CC1O2 (stereo partly drawn) [A-7, N-(D)-tryptophanamide of AmB]",,,,,,the most similar; also recorded: the highest power of the derivatives,the lowest cytoxicity; also recorded: low cytoxicity,220,4
